Experimental data published in patent US12018307B2, “Process for producing a glucuronide and genetically modified microorganisms useful in this process” (UTAH STATE UNIVERSITY, priority 2021, dated 2024).
≈ marks a conversion by molar mass, not a printed value. Read-outs that look alike come from different tables or passages of the source.

Key:
[1] = Determination of the water-solubility; assay type: physicochemical
Protocol: The purified product was tested for their water solubility as previously described (Wang et al. 2014). Purified 2′-hydroxyflavone glycoside was used to establish standard curves for quantifying water solubility. Briefly, the purified compound and the substrate were each mixed with 300 μL of distilled water in an Eppendorf tube at 25° C. An ultrasonic cleaner was used to facilitate the dissolution. After 30 min of sonication and centrifugation at 13,000×g for 10 min, supernatant of each sample was analyzed by HPLC to determine the compound concentrations in the solution. All samples were performed in triplicate and water solubility of each sample are expressed as the mean±standard deviation (SD).

[2] = system: human peripheral blood mononuclear cells; conditions: cited from earlier work

O=c1cc(-c2ccccc2O)oc2ccccc12 [2′-hydroxyflavone, reference compound]
solubility at 30 min ([1]; thermodynamic from solid, distilled water, 25° C., 30 min sonication, HPLC, n=3, mean±SD): 2.5 ± 0.7 µg/mL (≈ 10.5 µM)

O=C(O)[C@H]1O[C@@H](Oc2ccccc2-c2cc(=O)c3ccccc3o2)[C@H](O)[C@@H](O)[C@@H]1O [hydroxyflavone-2′-O-β-D-glucuronide]
water solubility ([1]; distilled water, 25° C., 30 min sonication, HPLC, n=3, mean±SD): 34.8 ± 0.9 µg/mL (≈ 84 µM)
water solubility relative to the substrate 2′-hydroxyflavone ([1]; ratio glucuronide / substrate): around 14 times

Oc1ccc(C=Cc2cc(O)cc(O)c2)cc1 [resveratrol, reference compound]
cytotoxicity to human peripheral blood mononuclear cells ([2]; at 30 μM): has cytotoxicity

O=C(O)[C@H]1O[C@@H](Oc2ccc(/C=C/c3cc(O)cc(O)c3)cc2)[C@H](O)[C@@H](O)[C@@H]1O [resveratrol-4′-O-β-D-glucuronide, Resveratrol-4′-O-β-D-glucuronide]
cytotoxicity to human peripheral blood mononuclear cells ([2]; at 300 μM): did not show any cytotoxicity
